Source: ChEMBL document CHEMBL1201862, “PubChem BioAssay data set” (2004)
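Assay format: 96-well plates, 48-hour exposure. GI50 marks 50% less growth.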 Activity calls are given as the source filed them. No stated cut-off is given here; in the data, active = GI50 up to about 1.1 µM and inactive = higher.

Legend:
Assay in all cases: NCI anticancer screen, dose series, 48 h
RXF 393 = test system: RXF 393
MOLT-4 = test system: MOLT-4
MDA-N = test system: MDA-N
HCT-116 = test system: HCT-116
HOP-92 = test system: HOP-92
IGROV-1 = test system: IGROV-1
PC-3 = test system: PC-3
MDA-MB-435 = test system: MDA-MB-435
UACC-62 = test system: UACC-62
Hs-578T = test system: Hs-578T
COLO 205 = test system: COLO 205
U-251 = test system: U-251
MCF7 = test system: MCF7
OVCAR-5 = test system: OVCAR-5
OVCAR-3 = test system: OVCAR-3
SR = test system: SR
HCT-15 = test system: HCT-15
Malme-3M = test system: Malme-3M
T47D = test system: T47D
CAKI-1 = test system: CAKI-1

Row | SMILES | GI50 (RXF 393) | GI50 (MOLT-4) | GI50 (MDA-N) | GI50 (HCT-116) | GI50 (HOP-92) | GI50 (IGROV-1) | GI50 (PC-3) | GI50 (MDA-MB-435) | GI50 (UACC-62) | GI50 (Hs-578T) | GI50 (COLO 205) | GI50 (U-251) | GI50 (MCF7) | GI50 (OVCAR-5) | GI50 (OVCAR-3) | GI50 (SR) | GI50 (HCT-15) [µM] | GI50 (Malme-3M) | GI50 (T47D) | GI50 (CAKI-1)
1 | CC(C)(C)COS(=O)OCC(C)(C)C | > 100 µM (inactive) | > 100 µM (inactive) | > 100 µM (inactive) | > 100 µM (inactive) | > 100 µM (inactive) | > 100 µM (inactive) | > 100 µM (inactive) | > 100 µM (inactive) | > 100 µM (inactive) | > 100 µM (inactive) | > 100 µM (inactive) | > 100 µM (inactive) | > 100 µM (inactive) | > 100 µM (inactive) | > 100 µM (inactive) | > 100 µM (inactive) | > 100 | > 100 µM (inactive) | > 100 µM (inactive) | > 100 µM (inactive)
2 | CC(=O)NC(CS)C(=O)O (stereo not given) | 21900 µM (inactive) | 16400 µM (inactive) | > 100 µM (inactive) | 17600 µM (inactive) | 12500 µM (inactive) | 2610 µM (inactive) | 33200 µM (inactive) | 17800 µM (inactive) | 27300 µM (inactive) | 18700 µM (inactive) | 14600 µM (inactive) | 19300 µM (inactive) | 25200 µM (inactive) | 14500 µM (inactive) | 16800 µM (inactive) | 44100 µM (inactive) | 12900 | 8220 µM (inactive) | 26900 µM (inactive) | 6030 µM (inactive)
3 | O=C(NC(=O)c1c(F)cccc1F)Nc1cccc(Oc2ncc(Cl)cn2)c1 | 38.5 µM (inactive) | > 80.5 µM (inactive) | 1.56 µM (inactive) | 8.79 µM (inactive) | 16.6 µM (inactive) | 33.4 µM (inactive) | > 100 µM (inactive) | 1.63 µM (inactive) | 36.6 µM (inactive) | 35.2 µM (inactive) | 3.85 µM (inactive) | 33.2 µM (inactive) | > 100 µM (inactive) | > 100 µM (inactive) | 40.4 µM (inactive) | 6.1 µM (inactive) | 3.27 | > 68.4 µM (inactive) | > 35.2 µM (inactive) | 30 µM (inactive)
4 | Nc1ccc(Sc2c3ccccc3nc3ccccc23)cc1 | 18.7 µM (inactive) | 3.02 µM (inactive) | 12.2 µM (inactive) | 10.8 µM (inactive) | 10.1 µM (inactive) | 17.7 µM (inactive) | 13.1 µM (inactive) | 17.2 µM (inactive) | 15.2 µM (inactive) | 25.6 µM (inactive) | 11.5 µM (inactive) | 15.2 µM (inactive) | 12.4 µM (inactive) | 21.8 µM (inactive) | 15.6 µM (inactive) | 3.74 µM (inactive) | 17.2 | 19.7 µM (inactive) | 2.06 µM (inactive) | 18.5 µM (inactive)
5 | CCOC(=O)CCC(NC(=O)c1ccc(Oc2nc3ccc(C(F)(F)F)cc3nc2-c2ccccc2)cc1)C(=O)OCC (stereo not given) | 15.7 µM (inactive) | > 100 µM (inactive) | > 100 µM (inactive) | 25.6 µM (inactive) | 18.9 µM (inactive) | 22.7 µM (inactive) | > 58.3 µM (inactive) | > 100 µM (inactive) | 23.1 µM (inactive) | 3.33 µM (inactive) | > 100 µM (inactive) | 20.4 µM (inactive) | > 41.5 µM (inactive) | > 68.7 µM (inactive) | 30.8 µM (inactive) | > 100 µM (inactive) | > 100 | 14.2 µM (inactive) | > 42.2 µM (inactive) | 7.19 µM (inactive)
6 | O=C1c2ccccc2C(=O)N1CCCCNOCCCN1C(=O)c2ccccc2C1=O | > 100 µM (inactive) | > 100 µM (inactive) | > 100 µM (inactive) | > 100 µM (inactive) | > 100 µM (inactive) | > 100 µM (inactive) | > 100 µM (inactive) | > 100 µM (inactive) | > 100 µM (inactive) | > 100 µM (inactive) | > 100 µM (inactive) | > 100 µM (inactive) | > 100 µM (inactive) | > 100 µM (inactive) | > 100 µM (inactive) | > 100 µM (inactive) | > 100 | > 100 µM (inactive) | > 100 µM (inactive) | > 100 µM (inactive)
7 | NCCCCNC1(c2cc3ccccc3s2)CCCCC1 | 3.07 µM (inactive) | 2.07 µM (inactive) | 1.71 µM (inactive) | 3.65 µM (inactive) | 5.32 µM (inactive) | 3.08 µM (inactive) | 4.9 µM (inactive) | 1.82 µM (inactive) | 1.91 µM (inactive) | 4.51 µM (inactive) | 1.74 µM (inactive) | 2.34 µM (inactive) | 2.88 µM (inactive) | 3.77 µM (inactive) | 2.78 µM (inactive) | 1.49 µM (inactive) | 4.54 | 1.88 µM (inactive) | 2.29 µM (inactive) | 14.8 µM (inactive)
8 | CC(C)(C)C(=O)OC(N)/C=C/c1ccccc1 (stereo not given) | > 100 µM (inactive) | > 100 µM (inactive) | > 100 µM (inactive) | > 100 µM (inactive) | > 100 µM (inactive) | > 100 µM (inactive) | > 100 µM (inactive) | > 100 µM (inactive) | > 100 µM (inactive) | > 100 µM (inactive) | > 100 µM (inactive) | > 100 µM (inactive) | > 100 µM (inactive) | > 100 µM (inactive) | > 100 µM (inactive) | 94 µM (inactive) | > 100 | > 100 µM (inactive) | > 100 µM (inactive) | > 100 µM (inactive)
9 | CCOc1cc2oc(C)cc(=O)c2c(OC)c1/C=N/c1ccc(Cn2c(C)nc3ccccc32)cc1 | > 100 µM (inactive) | > 100 µM (inactive) | > 100 µM (inactive) | > 100 µM (inactive) | > 100 µM (inactive) | > 100 µM (inactive) | > 100 µM (inactive) | > 100 µM (inactive) | > 100 µM (inactive) | > 100 µM (inactive) | > 100 µM (inactive) | > 100 µM (inactive) | > 100 µM (inactive) | > 100 µM (inactive) | > 100 µM (inactive) | > 100 µM (inactive) | > 100 | > 100 µM (inactive) | > 100 µM (inactive) | > 100 µM (inactive)
10 | N=C(N)N/N=C/c1c(-c2ccc(Cl)cc2)nc2sccn12 | 1.35 µM (inactive) | 2 µM (inactive) | 1.79 µM (inactive) | 1.6 µM (inactive) | 2.1 µM (inactive) | 1.85 µM (inactive) | 1.62 µM (inactive) | 1.74 µM (inactive) | 1.69 µM (inactive) | 4.97 µM (inactive) | 1.46 µM (inactive) | 1.86 µM (inactive) | 1.72 µM (inactive) | 2.3 µM (inactive) | 1.6 µM (inactive) | 3.46 µM (inactive) | 2.54 | 2.71 µM (inactive) | 1.33 µM (inactive) | 3.21 µM (inactive)
